# In patent US5132313A, “Non-competitive NMDA receptor antagonists and methods for their use” (priority 1989, dated 1992):
# Target: PCP binding sites of the NMDA receptor complex
# Set-up: species or system rat
# Details: for IC50: displacing (+)-[3H]MK-801 bound to rat brain homogenates, 0.5-1 nM radioligand, 100 μM glutamate, 30 μM glycine, 2 h room temperature, pH 7.4, mean of three experiments in duplicate ±SEM; for binding potency compared with corresponding S enantiomer: R enantiomers 1, 3, 5, 7 versus 2, 4, 6, 8; for Relative Potency (%): relative to PCP = 100%, displacing (+)-[3H]MK-801
SMILES,IC50 [nM],binding potency compared with corresponding S enantiomer (in words),Relative Potency (%),binding difference between enantiomeric pair of compounds 3 and 4 (compound 3 (R) versus compound 4 (S)) [fold],binding potency compared with PCP (in words)
N[C@]12CC=CC[C@H]1Cc1ccccc12 [Compound 1],114 ± 14,more potent in binding than the corresponding enantiomers of S stereochemistry,31,–,–
N[C@@]12CC=CC[C@@H]1Cc1ccccc12 [Compound 2],2240 ± 135,–,2,–,–
N[C@]12CCCC[C@H]1Cc1ccccc12 [Compound 3],19 ± 1,more potent in binding than the corresponding enantiomers of S stereochemistry,184,73,more potent in binding than PCP
N[C@@]12CCCC[C@@H]1Cc1ccccc12 [Compound 4],1390 ± 49,–,3,–,–
CCN[C@]12CCCC[C@H]1Cc1ccccc12 [Compound 7],68 ± 7,more potent in binding than the corresponding enantiomers of S stereochemistry,51,–,–
CCN[C@@]12CCCC[C@@H]1Cc1ccccc12 [Compound 8],546 ± 40,–,6,–,–
"c1ccc(C2(N3CCCCC3)CCCCC2)cc1 [PCP, phencyclidine, reference compound]",35 ± 1,–,100,–,–
"c1csc(C2(N3CCCCC3)CCCCC2)c1 [TCP, 1-[1-(2-thienyl)-cyclohexyl]-piperidine, reference compound]",11 ± 1,–,318,–,–
